Measured values as given in ChEMBL document CHEMBL6109084 (Eur J Med Chem, 2025).
“And” between values parts separate entries of the source, which are not always exact repeats. Equal entries are not always repeated. The source made the active and inactive calls. No cut-off for these calls is given here.

Test system: not listed separately
Test: Selectivity index, ratio of IC50 for inhibition of chymotrypsin (unknown origin) using N-Suc-Ala-Ala-Pro-Phe-pNA as substrate to IC50 for inhibition of human FXIa using p-Glu-Pro-Arg-pNA.HCl as substrate
Conditions: not given

Ratio IC50	Structure (SMILES)
> 1000	CC[C@@H](c1cc(-c2ccc(N)nc2)ccn1)n1cc(OC)c(-c2cc(Cl)ccc2-n2cnnn2)cc1=O

Biological target: Plasminogen (Homo sapiens, UniProt P00747)
Sequence (P00747 97-580 limits assumed): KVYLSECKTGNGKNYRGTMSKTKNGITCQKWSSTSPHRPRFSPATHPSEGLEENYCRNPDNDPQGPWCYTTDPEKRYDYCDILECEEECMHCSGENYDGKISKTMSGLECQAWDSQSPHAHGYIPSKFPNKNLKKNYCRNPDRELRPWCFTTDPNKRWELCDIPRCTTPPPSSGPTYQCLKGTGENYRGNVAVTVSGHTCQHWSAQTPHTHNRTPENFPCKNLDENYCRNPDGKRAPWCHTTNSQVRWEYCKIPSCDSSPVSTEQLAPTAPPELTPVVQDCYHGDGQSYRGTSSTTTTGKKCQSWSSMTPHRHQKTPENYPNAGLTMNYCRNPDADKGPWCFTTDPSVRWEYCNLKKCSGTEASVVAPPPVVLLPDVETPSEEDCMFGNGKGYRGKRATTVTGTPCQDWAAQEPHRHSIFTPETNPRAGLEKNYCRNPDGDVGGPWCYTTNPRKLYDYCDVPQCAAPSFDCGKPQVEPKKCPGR
Sequence (P00747 581-810 limits assumed): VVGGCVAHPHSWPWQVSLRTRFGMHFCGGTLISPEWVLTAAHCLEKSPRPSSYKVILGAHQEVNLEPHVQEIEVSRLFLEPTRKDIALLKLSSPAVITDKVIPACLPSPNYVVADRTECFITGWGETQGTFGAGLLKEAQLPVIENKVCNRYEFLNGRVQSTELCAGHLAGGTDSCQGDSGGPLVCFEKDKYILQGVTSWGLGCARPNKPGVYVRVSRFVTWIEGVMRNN
Test: Inhibition of plasmin (unknown origin) using PyroGlu-Phe-Lys-pNA.HCl as substrate incubated for 30 mins followed by substrate addition and measured after 60 mins by microplate reader analysis
Conditions: not given

IC50	Structure (SMILES)
> 1000 nM	CC[C@@H](C(=O)Nc1ccc(C(N)=O)c(F)c1)n1cc(OC)c(-c2cc(Cl)ccc2-n2cc(C(F)(F)F)nn2)cc1=O
> 1000 nM	CC[C@@H](c1cc(-c2ccc(N)nc2)ccn1)n1cc(OC)c(-c2cc(Cl)ccc2-n2cnnn2)cc1=O

Test system: HepG2
Test: Cytotoxicity against human HepG2 cells assessed as reduction in cell viability at 1 to 50 uM incubated for 24 hrs by MTT assay
Format: toxicity, cell-based
Conditions: hepg2, 24 h, dose 1-50 µM

Structure (SMILES)	Activity
CC[C@@H](C(=O)Nc1ccc(C(N)=O)c(F)c1)n1cc(OC)c(-c2cc(Cl)ccc2-n2cc(C(F)(F)F)nn2)cc1=O	Non-toxic

Test system: Plasma
Test: Anticoagulant activity in mouse plasma assessed as prolongation of activated partial thromboplastin time incubated for 3 mins by aPTT reagent based automated coagulometric analysis
Format: functional
Conditions: 0.05 h

Structure (SMILES)	EC1.5
CC[C@@H](C(=O)Nc1ccc(C(N)=O)c(F)c1)n1cc(OC)c(-c2cc(Cl)ccc2-n2cc(C(F)(F)F)nn2)cc1=O	>=9.3 uM and >12.5 uM
CC[C@@H](c1cc(-c2ccc(N)nc2)ccn1)n1cc(OC)c(-c2cc(Cl)ccc2-n2cnnn2)cc1=O	1.8 µM

Biological target: Trypsin (Homo sapiens, UniProt P07477+P07478+P35030)
Test: Inhibition of trypsin (unknown origin) using Bz-Ile-Glu(gamma-OR)-Gly-Arg-pNA.HCl as substrate incubated for 30 mins followed by substrate addition and measured after 60 mins by microplate reader analysis
Format: protein assay
Conditions: not given

IC50	Structure (SMILES)
> 1000 nM	CC[C@@H](C(=O)Nc1ccc(C(N)=O)c(F)c1)n1cc(OC)c(-c2cc(Cl)ccc2-n2cc(C(F)(F)F)nn2)cc1=O
> 1000 nM	CC[C@@H](c1cc(-c2ccc(N)nc2)ccn1)n1cc(OC)c(-c2cc(Cl)ccc2-n2cnnn2)cc1=O

Test system: not listed separately
Test: Toxicity in C57BL/6J mouse assessed as prolongation of bleeding time at 30 mg/kg, IG measured after 30 mins by tail bleeding assay
Format: organism-based
Conditions: in vivo, po, 0.5 h

Structure (SMILES)	Activity
CC[C@@H](C(=O)Nc1ccc(C(N)=O)c(F)c1)n1cc(OC)c(-c2cc(Cl)ccc2-n2cc(C(F)(F)F)nn2)cc1=O	Non-toxic

Test system: not listed separately
Test: Selectivity index, ratio of IC50 for inhibition of trypsin (unknown origin) using Bz-Ile-Glu(gamma-OR)-Gly-Arg-pNA.HCl as substrate to IC50 for inhibition of human FXIa using p-Glu-Pro-Arg-pNA.HCl as substrate
Conditions: not given

Ratio IC50	Structure (SMILES)
> 1000	CC[C@@H](c1cc(-c2ccc(N)nc2)ccn1)n1cc(OC)c(-c2cc(Cl)ccc2-n2cnnn2)cc1=O

Test system: not listed separately
Test: Selectivity index, ratio of IC50 for inhibition of tPA (unknown origin) using H-D-Ile-Pro-Arg-pNA-2HCl as substrate to IC50 for inhibition of human FXIa using p-Glu-Pro-Arg-pNA.HCl as substrate
Conditions: not given

Ratio IC50	Structure (SMILES)
> 1000	CC[C@@H](c1cc(-c2ccc(N)nc2)ccn1)n1cc(OC)c(-c2cc(Cl)ccc2-n2cnnn2)cc1=O

Test system: Plasma
Test: Anticoagulant activity in citrated human plasma assessed as prolongation of activated partial thromboplastin time at 1 uM incubated for 3 mins by aPTT reagent based automated coagulometric analysis relative to control
Format: functional
Conditions: 0.05 h

Structure (SMILES)	Activity
CC[C@@H](C(=O)Nc1ccc(C(N)=O)c(F)c1)n1cc(OC)c(-c2cc(Cl)ccc2-n2cc(C(F)(F)F)nn2)cc1=O	250.8%
CC[C@@H](c1cc(-c2ccc(N)nc2)ccn1)n1cc(OC)c(-c2cc(Cl)ccc2-n2cnnn2)cc1=O	368.3%

Biological target: Prothrombin (Homo sapiens, UniProt P00734)
Test: Inhibition of thrombin (unknown origin) using H-D-Phe-Pip-Arg-pNA.2HCl as substrate incubated for 30 mins followed by substrate addition and measured after 60 mins by microplate reader analysis
Conditions: not given

IC50	Structure (SMILES)
> 1000 nM	CC[C@@H](C(=O)Nc1ccc(C(N)=O)c(F)c1)n1cc(OC)c(-c2cc(Cl)ccc2-n2cc(C(F)(F)F)nn2)cc1=O
> 1000 nM	CC[C@@H](c1cc(-c2ccc(N)nc2)ccn1)n1cc(OC)c(-c2cc(Cl)ccc2-n2cnnn2)cc1=O

Biological target: Plasma kallikrein (Homo sapiens, UniProt P03952)
Sequence (P03952 20-390 limits assumed): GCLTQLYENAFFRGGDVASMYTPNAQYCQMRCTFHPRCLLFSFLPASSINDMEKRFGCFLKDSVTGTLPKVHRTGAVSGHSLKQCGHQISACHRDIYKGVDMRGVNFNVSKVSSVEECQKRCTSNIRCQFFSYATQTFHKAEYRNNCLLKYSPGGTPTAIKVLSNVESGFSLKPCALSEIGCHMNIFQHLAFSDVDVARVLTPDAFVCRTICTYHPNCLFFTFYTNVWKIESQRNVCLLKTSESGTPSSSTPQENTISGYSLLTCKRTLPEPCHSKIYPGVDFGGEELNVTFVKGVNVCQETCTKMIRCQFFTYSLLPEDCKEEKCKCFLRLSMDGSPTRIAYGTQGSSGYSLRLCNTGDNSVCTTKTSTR
Sequence (P03952 391-638 limits assumed): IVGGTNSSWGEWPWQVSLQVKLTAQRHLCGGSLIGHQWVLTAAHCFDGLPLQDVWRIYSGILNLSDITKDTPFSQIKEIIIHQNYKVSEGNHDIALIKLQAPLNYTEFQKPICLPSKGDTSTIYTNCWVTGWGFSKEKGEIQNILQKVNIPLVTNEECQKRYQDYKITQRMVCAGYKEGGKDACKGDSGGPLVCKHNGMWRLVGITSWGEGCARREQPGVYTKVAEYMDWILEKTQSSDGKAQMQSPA
Test: Inhibition of PKal (unknown origin) using H-D-Pro-Phe-Arg-pNA.2HCl as substrate incubated for 30 mins followed by substrate addition and measured after 60 mins by microplate reader analysis
Conditions: not given

IC50	Structure (SMILES)
37 nM	CC[C@@H](c1cc(-c2ccc(N)nc2)ccn1)n1cc(OC)c(-c2cc(Cl)ccc2-n2cnnn2)cc1=O

Biological target: Tissue-type plasminogen activator (Homo sapiens, UniProt P00750)
Sequence (P00750 whole entry): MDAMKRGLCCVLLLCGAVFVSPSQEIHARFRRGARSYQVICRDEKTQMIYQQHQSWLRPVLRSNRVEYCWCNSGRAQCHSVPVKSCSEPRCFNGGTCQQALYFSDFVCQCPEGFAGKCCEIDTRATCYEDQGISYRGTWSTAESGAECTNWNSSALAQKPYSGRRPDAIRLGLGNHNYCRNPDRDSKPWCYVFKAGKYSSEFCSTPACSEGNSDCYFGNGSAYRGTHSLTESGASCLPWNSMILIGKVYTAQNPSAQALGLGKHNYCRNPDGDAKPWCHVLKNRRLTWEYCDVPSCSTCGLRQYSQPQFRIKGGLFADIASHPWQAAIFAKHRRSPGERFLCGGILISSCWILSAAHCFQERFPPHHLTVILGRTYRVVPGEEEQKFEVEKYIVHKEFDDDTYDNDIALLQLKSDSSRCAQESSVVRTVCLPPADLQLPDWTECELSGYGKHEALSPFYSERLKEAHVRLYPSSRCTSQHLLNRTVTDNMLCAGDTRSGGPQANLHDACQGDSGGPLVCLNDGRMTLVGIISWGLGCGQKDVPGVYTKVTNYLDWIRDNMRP
Test: Inhibition of tPA (unknown origin) using H-D-Ile-Pro-Arg-pNA-2HCl as substrate incubated for 30 mins followed by substrate addition and measured after 60 mins by microplate reader analysis
Conditions: not given

IC50	Structure (SMILES)
> 1000 nM	CC[C@@H](C(=O)Nc1ccc(C(N)=O)c(F)c1)n1cc(OC)c(-c2cc(Cl)ccc2-n2cc(C(F)(F)F)nn2)cc1=O
> 1000 nM	CC[C@@H](c1cc(-c2ccc(N)nc2)ccn1)n1cc(OC)c(-c2cc(Cl)ccc2-n2cnnn2)cc1=O

Test system: not listed separately
Test: Selectivity index, ratio of IC50 for inhibition of FXIIa (unknown origin) using H-D-ProPhe-Arg-pNA.2HCl as substrate to IC50 for inhibition of human FXIa using p-Glu-Pro-Arg-pNA.HCl as substrate
Conditions: not given

Ratio IC50	Structure (SMILES)
> 1000	CC[C@@H](c1cc(-c2ccc(N)nc2)ccn1)n1cc(OC)c(-c2cc(Cl)ccc2-n2cnnn2)cc1=O

Test system: not listed separately
Test: Cytotoxicity against human AC16 [Human hybrid] cells assessed as reduction in cell viability at 1 to 50 uM incubated for 24 hrs by MTT assay
Format: toxicity, cell-based
Conditions: dose 1-50 µM

Structure (SMILES)	Activity
CC[C@@H](C(=O)Nc1ccc(C(N)=O)c(F)c1)n1cc(OC)c(-c2cc(Cl)ccc2-n2cc(C(F)(F)F)nn2)cc1=O	Non-toxic

Test system: not listed separately
Test: Selectivity index, ratio of IC50 for inhibition of plasmin (unknown origin) using PyroGlu-Phe-Lys-pNA.HCl as substrate to IC50 for inhibition of human FXIa using p-Glu-Pro-Arg-pNA.HCl as substrate
Conditions: not given

Ratio IC50	Structure (SMILES)
> 1000	CC[C@@H](c1cc(-c2ccc(N)nc2)ccn1)n1cc(OC)c(-c2cc(Cl)ccc2-n2cnnn2)cc1=O

Test system: Plasma
Test: Anticoagulant activity in citrated human plasma assessed as prolongation of prothrombin time incubated for 3 mins by PT reagent based automated coagulometric analysis
Format: functional, cell-free
Conditions: not given

Structure (SMILES)	Activity
CC[C@@H](c1cc(-c2ccc(N)nc2)ccn1)n1cc(OC)c(-c2cc(Cl)ccc2-n2cnnn2)cc1=O	inactive

Test system: Plasma
Test: Anticoagulant activity in citrated human plasma assessed as prolongation of activated partial thromboplastin time incubated for 3 mins by aPTT reagent based automated coagulometric analysis
Format: functional
Conditions: not given

Structure (SMILES)	Activity
CC[C@@H](C(=O)Nc1ccc(C(N)=O)c(F)c1)n1cc(OC)c(-c2cc(Cl)ccc2-n2cc(C(F)(F)F)nn2)cc1=O	Dose-dependent-effect
CC[C@@H](c1cc(-c2ccc(N)nc2)ccn1)n1cc(OC)c(-c2cc(Cl)ccc2-n2cnnn2)cc1=O	Dose-dependent-effect

Same assay, conditions: 0.05 h

Structure (SMILES)	EC1.5
CC[C@@H](C(=O)Nc1ccc(C(N)=O)c(F)c1)n1cc(OC)c(-c2cc(Cl)ccc2-n2cc(C(F)(F)F)nn2)cc1=O	0.42 µM
CC[C@@H](c1cc(-c2ccc(N)nc2)ccn1)n1cc(OC)c(-c2cc(Cl)ccc2-n2cnnn2)cc1=O	0.29 µM

Test system: HK-2
Test: Cytotoxicity against human HK-2 cells assessed as reduction in cell viability at 50 uM incubated for 24 hrs by MTT assay
Format: toxicity, cell-based
Conditions: hk-2, 24 h

Structure (SMILES)	Activity
CC[C@@H](c1cc(-c2ccc(N)nc2)ccn1)n1cc(OC)c(-c2cc(Cl)ccc2-n2cnnn2)cc1=O	Toxic

Biological target: Coagulation factor XI (Homo sapiens, UniProt P03951)
Sequence (P03951 19-387 limits assumed): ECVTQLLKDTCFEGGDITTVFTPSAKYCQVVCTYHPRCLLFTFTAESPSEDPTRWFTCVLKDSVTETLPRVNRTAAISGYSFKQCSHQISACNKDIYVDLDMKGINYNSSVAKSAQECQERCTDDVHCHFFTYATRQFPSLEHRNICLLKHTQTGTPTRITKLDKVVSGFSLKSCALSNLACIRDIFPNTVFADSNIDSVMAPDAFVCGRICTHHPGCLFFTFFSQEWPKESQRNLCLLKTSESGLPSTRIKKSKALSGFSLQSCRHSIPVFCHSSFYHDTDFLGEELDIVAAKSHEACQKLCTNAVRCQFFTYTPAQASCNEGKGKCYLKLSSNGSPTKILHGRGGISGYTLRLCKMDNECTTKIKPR
Sequence (P03951 388-625 limits assumed): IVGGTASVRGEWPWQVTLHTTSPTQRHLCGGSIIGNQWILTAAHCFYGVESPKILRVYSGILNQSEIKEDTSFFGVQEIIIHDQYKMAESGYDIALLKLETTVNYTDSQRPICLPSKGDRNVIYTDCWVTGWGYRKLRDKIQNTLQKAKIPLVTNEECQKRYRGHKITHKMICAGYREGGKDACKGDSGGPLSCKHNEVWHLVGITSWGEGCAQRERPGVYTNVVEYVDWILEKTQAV
Test: Inhibition of human FXIa using p-Glu-Pro-Arg-pNA.HCl as substrate incubated for 30 mins followed by substrate addition and measured after 60 mins by microplate reader analysis
Conditions: not given

IC50	Structure (SMILES)
0.13 nM	CC[C@@H](c1cc(-c2ccc(N)nc2)ccn1)n1cc(OC)c(-c2cc(Cl)ccc2-n2cnnn2)cc1=O

Test system: HK-2
Test: Cytotoxicity against human HK-2 cells assessed as reduction in cell viability at 1 to 50 uM incubated for 24 hrs by MTT assay
Format: toxicity, cell-based
Conditions: hk-2, 24 h, dose 1-50 µM

Structure (SMILES)	Activity
CC[C@@H](C(=O)Nc1ccc(C(N)=O)c(F)c1)n1cc(OC)c(-c2cc(Cl)ccc2-n2cc(C(F)(F)F)nn2)cc1=O	Non-toxic

Biological target: Chymotrypsin (Homo sapiens, UniProt Q99895+P17538+P40313+Q6GPI1)
Test: Inhibition of chymotrypsin (unknown origin) using N-Suc-Ala-Ala-Pro-Phe-pNA as substrate incubated for 30 mins followed by substrate addition and measured after 60 mins by microplate reader analysis
Format: protein assay
Conditions: not given

IC50	Structure (SMILES)
> 1000 nM	CC[C@@H](C(=O)Nc1ccc(C(N)=O)c(F)c1)n1cc(OC)c(-c2cc(Cl)ccc2-n2cc(C(F)(F)F)nn2)cc1=O
> 1000 nM	CC[C@@H](c1cc(-c2ccc(N)nc2)ccn1)n1cc(OC)c(-c2cc(Cl)ccc2-n2cnnn2)cc1=O

Biological target: T1, Coagulation factor XII (Homo sapiens, UniProt P00748)
T1 sequence (P00748 whole entry): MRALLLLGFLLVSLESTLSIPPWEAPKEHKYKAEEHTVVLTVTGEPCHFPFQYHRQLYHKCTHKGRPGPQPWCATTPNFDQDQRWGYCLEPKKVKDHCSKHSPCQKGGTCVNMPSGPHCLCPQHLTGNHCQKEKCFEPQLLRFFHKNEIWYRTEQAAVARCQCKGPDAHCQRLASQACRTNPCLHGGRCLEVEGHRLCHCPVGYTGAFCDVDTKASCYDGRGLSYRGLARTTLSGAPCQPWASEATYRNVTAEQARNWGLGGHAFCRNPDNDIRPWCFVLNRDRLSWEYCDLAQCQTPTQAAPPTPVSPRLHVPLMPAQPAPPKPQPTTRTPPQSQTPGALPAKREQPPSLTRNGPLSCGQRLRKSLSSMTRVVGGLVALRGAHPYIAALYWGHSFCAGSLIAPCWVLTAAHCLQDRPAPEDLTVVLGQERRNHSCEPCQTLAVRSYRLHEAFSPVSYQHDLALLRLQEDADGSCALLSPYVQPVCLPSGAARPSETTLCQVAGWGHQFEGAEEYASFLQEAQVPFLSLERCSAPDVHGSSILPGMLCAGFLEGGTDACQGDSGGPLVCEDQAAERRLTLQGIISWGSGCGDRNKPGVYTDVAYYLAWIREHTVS
Test: Inhibition of FXIIa (unknown origin) using H-D-ProPhe-Arg-pNA.2HCl as substrate incubated for 30 mins followed by substrate addition and measured after 60 mins by microplate reader analysis
Conditions: not given

IC50	Structure (SMILES)
> 1000 nM	CC[C@@H](C(=O)Nc1ccc(C(N)=O)c(F)c1)n1cc(OC)c(-c2cc(Cl)ccc2-n2cc(C(F)(F)F)nn2)cc1=O
> 1000 nM	CC[C@@H](c1cc(-c2ccc(N)nc2)ccn1)n1cc(OC)c(-c2cc(Cl)ccc2-n2cnnn2)cc1=O

Biological target: Coagulation factor X (Homo sapiens, UniProt P00742)
Sequence (P00742 41-179 limits assumed): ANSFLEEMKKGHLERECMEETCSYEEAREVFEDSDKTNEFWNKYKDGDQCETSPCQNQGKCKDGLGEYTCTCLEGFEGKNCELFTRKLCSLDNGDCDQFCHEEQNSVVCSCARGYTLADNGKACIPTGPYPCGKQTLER
Sequence (P00742 235-488 limits assumed): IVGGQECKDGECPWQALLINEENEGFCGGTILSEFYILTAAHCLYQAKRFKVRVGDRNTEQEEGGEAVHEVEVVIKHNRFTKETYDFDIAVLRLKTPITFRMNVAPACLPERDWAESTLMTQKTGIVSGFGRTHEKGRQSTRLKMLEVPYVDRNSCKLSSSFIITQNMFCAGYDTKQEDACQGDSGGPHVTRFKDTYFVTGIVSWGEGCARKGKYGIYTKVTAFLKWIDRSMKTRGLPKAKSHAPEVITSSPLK
Test: Inhibition of FXa (unknown origin) using Z-D-Arg-Gly-Arg-pNA.2HCl as substrate incubated for 30 mins followed by substrate addition and measured after 60 mins by microplate reader analysis
Conditions: not given

IC50	Structure (SMILES)
> 1000 nM	CC[C@@H](C(=O)Nc1ccc(C(N)=O)c(F)c1)n1cc(OC)c(-c2cc(Cl)ccc2-n2cc(C(F)(F)F)nn2)cc1=O
> 1000 nM	CC[C@@H](c1cc(-c2ccc(N)nc2)ccn1)n1cc(OC)c(-c2cc(Cl)ccc2-n2cnnn2)cc1=O

Test system: not listed separately
Test: Selectivity index, ratio of IC50 for inhibition of thrombin (unknown origin) using H-D-Phe-Pip-Arg-pNA.2HCl as substrate to IC50 for inhibition of human FXIa using p-Glu-Pro-Arg-pNA.HCl as substrate
Conditions: not given

Ratio IC50	Structure (SMILES)
> 1000	CC[C@@H](c1cc(-c2ccc(N)nc2)ccn1)n1cc(OC)c(-c2cc(Cl)ccc2-n2cnnn2)cc1=O

Test system: not listed separately
Test: Selectivity index, ratio of IC50 for inhibition of FXa (unknown origin) using Z-D-Arg-Gly-Arg-pNA.2HCl as substrate to IC50 for inhibition of human FXIa using p-Glu-Pro-Arg-pNA.HCl as substrate
Conditions: not given

Ratio IC50	Structure (SMILES)
> 1000	CC[C@@H](c1cc(-c2ccc(N)nc2)ccn1)n1cc(OC)c(-c2cc(Cl)ccc2-n2cnnn2)cc1=O
